Data reported in ChEMBL document CHEMBL1201862, “PubChem BioAssay data set” (2004).
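1) Cells in 96-well plates. 2) Compound, 48 h, 5 concentrations. 3) Linear interpolation between surrounding doses. 4) Unreached endpoint = highest concentration. GI50: concentration for 50% inhibition of growth.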 Activity calls are given as the source filed them. Cut-off read from the data, not from the text of the source: active = GI50 up to about 1.1 µM and inactive = higher.

Legend:
Test in all cases: growth of human tumour cells (NCI), 48 h
SK-MEL-28 = test system: SK-MEL-28
OVCAR-4 = test system: OVCAR-4
786-0 = test system: 786-0
PC-3 = test system: PC-3
SNB-19 = test system: SNB-19
NCI/ADR-RES = test system: NCI/ADR-RES
HCC 2998 = test system: HCC 2998
TK-10 = test system: TK-10
CCRF-CEM = test system: CCRF-CEM
K562 = test system: K562
IGROV-1 = test system: IGROV-1
SNB-75 = test system: SNB-75
NCI-H226 = test system: NCI-H226
HCT-116 = test system: HCT-116
SK-MEL-5 = test system: SK-MEL-5
HCT-15 = test system: HCT-15
UACC-62 = test system: UACC-62
SW-620 = test system: SW-620
MCF7 = test system: MCF7
SK-MEL-2 = test system: SK-MEL-2
BT-549 = test system: BT-549
OVCAR-8 = test system: OVCAR-8
HT-29 = test system: HT-29
NCI-H522 = test system: NCI-H522
SK-OV-3 = test system: SK-OV-3
DU-145 = test system: DU-145
EKVX = test system: EKVX
Hs-578T = test system: Hs-578T
T47D = test system: T47D
MDA-MB-435 = test system: MDA-MB-435
SF-295 = test system: SF-295
HOP-62 = test system: HOP-62
A498 = test system: A498
SF-268 = test system: SF-268
HOP-92 = test system: HOP-92
RPMI-8226 = test system: RPMI-8226
ACHN = test system: ACHN
CAKI-1 = test system: CAKI-1
COLO 205 = test system: COLO 205
RXF 393 = test system: RXF 393
SR = test system: SR
KM12 = test system: KM12
LOX IMVI = test system: LOX IMVI
NCI-H460 = test system: NCI-H460
U-251 = test system: U-251
SF-539 = test system: SF-539
UO-31 = test system: UO-31
HL-60 = test system: HL-60
SN12C = test system: SN12C
A549 = test system: A549
NCI-H23 = test system: NCI-H23
MDA-MB-231 = test system: MDA-MB-231
UACC-257 = test system: UACC-257
MOLT-4 = test system: MOLT-4
Malme-3M = test system: Malme-3M
M14 = test system: M14
OVCAR-3 = test system: OVCAR-3
OVCAR-5 = test system: OVCAR-5
MDA-N = test system: MDA-N

In the case of `NC(=S)N/N=C/C1NCCC2CCCCC21` (configuration not stated), the GI50 (SK-MEL-28) was 2.38 µM (inactive), the GI50 (OVCAR-4) was 1.73 µM (inactive) and the GI50 (786-0) was 0.138 µM (active). The GI50 (PC-3) was 0.363 µM (active), the GI50 (SNB-19) was 0.35 µM (active) and the GI50 (NCI/ADR-RES) was 0.254 µM (active). For the same compound, the GI50 (HCC 2998) was 0.108 µM (active), the GI50 (TK-10) was 0.33 µM (active) and the GI50 (CCRF-CEM) was 0.31 µM (active). The GI50 (K562) was 0.617 µM (active), the GI50 (IGROV-1) was 0.689 µM (active) and the GI50 (SNB-75) was 24.2 µM (inactive). The GI50 (NCI-H226) was 0.314 µM (active), the GI50 (HCT-116) was 0.281 µM (active) and the GI50 (SK-MEL-5) was 0.118 µM (active). For the same compound, the GI50 (HCT-15) was 0.0895 µM, the GI50 (UACC-62) was 0.0452 µM (active) and the GI50 (SW-620) was 0.568 µM (active). The GI50 (MCF7) was 0.59 µM (active), the GI50 (SK-MEL-2) was 0.824 µM (active) and the GI50 (BT-549) was 0.834 µM (active). For the same compound, the GI50 (OVCAR-8) was 0.149 µM (active), the GI50 (HT-29) was 2.86 µM (inactive) and the GI50 (NCI-H522) was 0.318 µM (active). The GI50 (SK-OV-3) was 0.37 µM (active), the GI50 (DU-145) was 0.173 µM (active) and the GI50 (EKVX) was 0.611 µM (active). For the same compound, the GI50 (Hs-578T) was 1.15 µM (inactive), the GI50 (T47D) was 0.282 µM (active) and the GI50 (MDA-MB-435) was 0.414 µM (active). The GI50 (SF-295) was 0.0673 µM (active), the GI50 (HOP-62) was 0.0938 µM (active) and the GI50 (A498) was 0.17 µM (active). The GI50 (SF-268) was 0.313 µM (active), the GI50 (HOP-92) was 64.1 nM (active) and the GI50 (RPMI-8226) was 0.279 µM (active). For the same compound, the GI50 (ACHN) was 0.0134 µM (active), the GI50 (CAKI-1) was 0.0715 µM (active) and the GI50 (COLO 205) was 0.373 µM (active). For the same compound, the GI50 (RXF 393) was 2.43 µM (inactive), the GI50 (SR) was 0.137 µM (active) and the GI50 (KM12) was 0.416 µM (active). The GI50 (LOX IMVI) was 0.221 µM (active), the GI50 (NCI-H460) was 0.231 µM (active) and the GI50 (U-251) was 0.136 µM (active). For the same compound, the GI50 (SF-539) was 0.0272 µM (active), the GI50 (UO-31) was 0.34 µM (active) and the GI50 (HL-60) was 0.291 µM (active). For the same compound, the GI50 (SN12C) was 0.167 µM (active), the GI50 (A549) was 0.262 µM (active) and the GI50 (NCI-H23) was 0.133 µM (active). The GI50 (MDA-MB-231) was 1.12 µM (active), the GI50 (UACC-257) was 0.601 µM (active) and the GI50 (MOLT-4) was 0.257 µM (active). For the same compound, the GI50 (Malme-3M) was 0.254 µM (active), the GI50 (M14) was 0.17 µM (active) and the GI50 (OVCAR-3) was 0.312 µM (active). The GI50 (OVCAR-5) was 0.796 µM (active).

In the case of `C1=C(c2ccccc2)O[C@H](COCc2ccccc2)C(OCc2ccccc2)[C@@H]1OCc1ccccc1` (some centres not stated), the GI50 (SK-MEL-28) was > 10 µM (inactive), the GI50 (MDA-N) was > 10 µM (inactive) and the GI50 (786-0) was > 10 µM (inactive). For the same compound, the GI50 (PC-3) was > 10 µM (inactive), the GI50 (HCC 2998) was > 10 µM (inactive) and the GI50 (TK-10) was > 10 µM (inactive). For the same compound, the GI50 (CCRF-CEM) was > 10 µM (inactive), the GI50 (K562) was > 10 µM (inactive) and the GI50 (IGROV-1) was > 10 µM (inactive). For the same compound, the GI50 (SNB-75) was > 10 µM (inactive), the GI50 (SK-MEL-5) was > 10 µM (inactive) and the GI50 (HCT-15) was greater than 10 µM. For the same compound, the GI50 (UACC-62) was > 10 µM (inactive), the GI50 (SW-620) was > 10 µM (inactive) and the GI50 (MCF7) was > 10 µM (inactive). The GI50 (OVCAR-8) was > 10 µM (inactive), the GI50 (HT-29) was > 10 µM (inactive) and the GI50 (SK-OV-3) was > 10 µM (inactive). The GI50 (DU-145) was > 10 µM (inactive), the GI50 (EKVX) was > 10 µM (inactive) and the GI50 (T47D) was > 10 µM (inactive). The GI50 (SF-295) was > 10 µM (inactive), the GI50 (HOP-62) was > 10 µM (inactive) and the GI50 (SF-268) was > 10 µM (inactive). The GI50 (RPMI-8226) was > 10 µM (inactive), the GI50 (CAKI-1) was > 10 µM (inactive) and the GI50 (COLO 205) was > 10 µM (inactive). The GI50 (RXF 393) was > 10 µM (inactive), the GI50 (SR) was > 10 µM (inactive) and the GI50 (KM12) was > 10 µM (inactive). The GI50 (HL-60) was > 10 µM (inactive), the GI50 (SN12C) was > 10 µM (inactive) and the GI50 (A549) was > 10 µM (inactive). The GI50 (NCI-H23) was > 10 µM (inactive), the GI50 (MDA-MB-231) was > 10 µM (inactive) and the GI50 (UACC-257) was > 10 µM (inactive). For the same compound, the GI50 (MOLT-4) was > 10 µM (inactive), the GI50 (Malme-3M) was > 10 µM (inactive) and the GI50 (M14) was > 10 µM (inactive).

`Cc1ccc(O)cc1.Cc1cccc(O)c1.Cc1ccccc1O` [CRESOL] was tested, and the GI50 (SK-MEL-28) was > 100 µM (inactive), the GI50 (OVCAR-4) was 89.3 µM (inactive) and the GI50 (786-0) was > 100 µM (inactive). For the same compound, the GI50 (PC-3) was 73.3 µM (inactive), the GI50 (SNB-19) was > 100 µM (inactive) and the GI50 (NCI/ADR-RES) was > 100 µM (inactive). The GI50 (HCC 2998) was > 100 µM (inactive), the GI50 (TK-10) was > 100 µM (inactive) and the GI50 (CCRF-CEM) was 18.7 µM (inactive). For the same compound, the GI50 (K562) was > 100 µM (inactive), the GI50 (IGROV-1) was 88.9 µM (inactive) and the GI50 (NCI-H226) was 85.9 µM (inactive). For the same compound, the GI50 (HCT-116) was > 100 µM (inactive), the GI50 (SK-MEL-5) was > 100 µM (inactive) and the GI50 (HCT-15) was greater than 100 µM. The GI50 (UACC-62) was 88.3 µM (inactive), the GI50 (SW-620) was > 100 µM (inactive) and the GI50 (MCF7) was > 100 µM (inactive). For the same compound, the GI50 (SK-MEL-2) was > 100 µM (inactive), the GI50 (BT-549) was > 100 µM (inactive) and the GI50 (OVCAR-8) was > 100 µM (inactive). The GI50 (HT-29) was > 100 µM (inactive), the GI50 (NCI-H522) was 8.34 µM (inactive) and the GI50 (SK-OV-3) was > 100 µM (inactive). The GI50 (DU-145) was > 100 µM (inactive), the GI50 (EKVX) was > 100 µM (inactive) and the GI50 (Hs-578T) was 4.75 µM (inactive). The GI50 (T47D) was > 100 µM (inactive), the GI50 (MDA-MB-435) was > 100 µM (inactive) and the GI50 (SF-295) was > 100 µM (inactive). For the same compound, the GI50 (HOP-62) was > 100 µM (inactive), the GI50 (A498) was > 100 µM (inactive) and the GI50 (SF-268) was > 100 µM (inactive). The GI50 (RPMI-8226) was > 100 µM (inactive), the GI50 (ACHN) was > 100 µM (inactive) and the GI50 (CAKI-1) was > 100 µM (inactive). The GI50 (COLO 205) was > 100 µM (inactive), the GI50 (RXF 393) was > 100 µM (inactive) and the GI50 (KM12) was > 100 µM (inactive). For the same compound, the GI50 (LOX IMVI) was > 100 µM (inactive), the GI50 (NCI-H460) was > 100 µM (inactive) and the GI50 (U-251) was > 100 µM (inactive). The GI50 (SF-539) was > 100 µM (inactive), the GI50 (UO-31) was > 100 µM (inactive) and the GI50 (HL-60) was > 100 µM (inactive). The GI50 (SN12C) was > 100 µM (inactive), the GI50 (A549) was > 100 µM (inactive) and the GI50 (NCI-H23) was > 100 µM (inactive). For the same compound, the GI50 (MDA-MB-231) was > 100 µM (inactive), the GI50 (UACC-257) was > 100 µM (inactive) and the GI50 (MOLT-4) was 88.7 µM (inactive). The GI50 (Malme-3M) was 8.61 µM (inactive), the GI50 (M14) was > 100 µM (inactive) and the GI50 (OVCAR-3) was > 100 µM (inactive). For the same compound, the GI50 (OVCAR-5) was > 100 µM (inactive).
